Data set [1] relates to SAUR 9218. Nature of the data set: MIC by standard agar dilution method. In kind it is cell-based. The settings on record: Mueller Hinton agar, incubated overnight at 35° C., lowest concentration that inhibits visible growth. How it is done: MIC Test Method The in vitro MICs of test compounds were determined by a standard agar dilution method. A stock drug solution of each analog was prepared in the preferred solvent, usually DMSO:H2O (1:3). Serial 2-fold dilutions of each sample are made using 1.0 ml aliquots of sterile distilled water. To each 1.0 ml aliquot of drug was added 9 ml of molten Mueller Hinton agar medium. The drug-supplemented agar was mixed, poured into 15×100 mm petri dishes, and allowed to solidify and dry prior to inoculation. Vials of each of the test organisms are maintained frozen in the vapor phase of a liquid nitrogen freezer. Test cultures are grown overnight at 35° C. on the medium appropriate for the organism. Colonies are harvested with a sterile swab, and cell suspensions are prepared in Trypticase Soy broth (TSB) to equal the turbidity of a 0.5 McFarland standard. A 1:20 dilution of each suspension was made in TSB. The plates containing the drug supplemented agar are inoculated with a 0.001 ml drop of the cell suspension using a Steers replicator, yielding approximately 10^4 to 10^5 cells per spot. The plates are incubated overnight at 35° C. Following incubation the Minimum Inhibitory Concentration (MIC μg/ml), the lowest concentration of drug that inhibits visible growth of the organism, was read and recorded.

Converted amounts (≈) assume the structure as drawn.

Among the data in patent publication US20040142981A1, “Antibacterial benzoic acid derivatives” (priority 2002, published 2004) are MIC and melting point values, retold here.

The compound `N#Cc1ccc(NC(=O)c2cccc(S(=O)(=O)N3CCOCC3)c2)c(-c2n[nH]c(=O)o2)c1` [Example 18, N-[4-cyano-2-(5-oxo-4,5-dihydro-1,3,4-oxadiazol-2-yl)phenyl]-3-(morpholin-4-ylsulfonyl)benzamide] registered a melting point of 283 to 285 °C. In addition, in data set [1], the MIC was over 128 µg/mL.
Taken in the same sequence, the figures for `O=C(Nc1ccc(Br)cc1-c1noc(=O)[nH]1)c1cccc(S(=O)(=O)N2CCOCC2)c1` [Example 19, N-[4-bromo-2-(5-oxo-4,5-dihydro-1,2,4-oxadiazol-3-yl)phenyl]-3-(morpholin-4-ylsulfonyl)benzamide] were 220 to 223 °C and 128 µg/mL (≈ 251 µM).
Taken in the same sequence, the figures for `N#Cc1ccc(NC(=O)c2cccc(S(=O)(=O)N3CCOCC3)c2)c(-c2nnn[nH]2)c1` [Example 20, N-[4-cyano-2-(1H-tetraazol-5-yl)phenyl]-3-(morpholin-4-ylsulfonyl)benzamide] were 230 to 232 °C and 64 µg/mL (≈ 146 µM).
`CC(C)(C)C(=O)OCn1nnc(-c2cc(Br)ccc2NC(=O)c2cccc(S(=O)(=O)N3CCOCC3)c2)n1` [Example 21, [5-(5-bromo-2-{[3-(morpholin-4-ylsulfonyl)benzoyl]amino}phenyl)-2H-tetraazol-2-yl]methyl pivalate] displayed a melting point of 210 to 212 °C. Also, the minimal inhibitory concentration (MIC) in data set [1] was over 64 µg/mL.
The corresponding values for `N#Cc1ccc(NC(=O)c2ccc(S(=O)(=O)N3CCc4cc(Cl)ccc43)cc2)c(-c2n[nH]c(=O)o2)c1` [Example 22, 4-[(5-chloro-2,3-dihydro-1H-indol-1-yl)sulfonyl]-N-[4-cyano-2-(5-oxo-4,5-dihydro-1,3,4-oxadiazol-2-yl)phenyl]benzamide] are 262 to 264 °C and 32 µg/mL (≈ 61.3 µM).
`N#Cc1ccc(NC(=O)c2ccc(S(=O)(=O)N3CCc4cc(Cl)ccc43)cc2)c(-c2n[nH]c(=S)o2)c1` [Example 23, 4-[(5-chloro-2,3-dihydro-1H-indol-1-yl)sulfonyl]-N-[4-cyano-2-(5-thioxo-4,5-dihydro-1,3,4-oxadiazol-2-yl)phenyl]benzamide] registered a melting point of 225 to 229 °C. The minimal inhibitory concentration (MIC) in data set [1] was 8 µg/mL (≈ 14.9 µM).
The corresponding values for `N#Cc1ccc(NC(=O)c2cc3cccc(S(=O)(=O)c4ccccc4)c3[nH]2)c(-c2nnn[nH]2)c1` [Example 25, N-[4-cyano-2-(1H-tetraazol-5-yl)phenyl]-7-(phenylsulfonyl)-1H-indole-2-carboxamide] are 293 to 295 °C and 0.125 µg/mL (≈ 0.266 µM).

As usually defined, the MIC is the least concentration at which growth counts as inhibited. The melting point is the temperature of the solid-liquid transition.
